For one test, the target named is B-Raf delta1-415 (Homo sapiens, UniProt P15056). The experiment in a line: B-Raf kinase inhibition (MAPH filter plate, 33P-ATP, MEK1 substrate). The following applies: read-out: Biochemical IC50 B-Raf. The method, boiled down:
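Radiometric filter-binding assay with B-Raf delta1-415 at a level giving 50% turnover, MEK1 substrate and 33P-ATP (12.5 μCi/ml) in 20 mM Mops pH 7.0 with Mg/Mn, 1 h at room temperature. Inhibitor dilution series from 10 μM; EDTA-stopped reactions captured on phosphocellulose filters, counted by scintillation for IC50.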

The target in test [1] is C-Raf Raf-1 (truncated), active (Homo sapiens, UniProt P04049, Y340D/Y341D). Put plainly: C-Raf kinase inhibition (MAPH assay / IMAP assay). Particulars: read-out: Biochemical IC50 C-Raf. The method, boiled down:
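Truncated active human C-Raf (Y340D/Y341D), room temperature, top inhibitor concentration 10 μM in a dilution series for IC50. MAPH: 57.8 μM myelin basic protein with [γ-33P]ATP, kinase at 10% ATP turnover, 1 h, filter-bound radioactivity. IMAP: 400 nM fluorescent peptide, 20 mM Hepes pH 7.5 with 10 mM MnCl2, kinase at 50% turnover, fluorescence polarization.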

Another test relates to HT-29 tumor cells. The experiment in a line: Anti-proliferative activity, SRB assay. The class given is cell-based, human. The following applies: Homo sapiens, HT-29, 72 h, 72 hours exposure, read-out: CELLULAR IC50 HT-29. A digest of the protocol: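 Cells at 3,000-15,000/well, plated 24 h before compound, exposed to a concentration range for 72 hours. Proliferation measured by SRB staining after cold TCA fixation, absorbance at OD570; IC50 estimated from % inhibition versus DMSO-treated cells.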
(Sulforhodamine B stains cellular protein and so reports cell mass.)

Molecules are shown by their SMILES.

Sequence of B-Raf delta1-415 (P15056 416-766): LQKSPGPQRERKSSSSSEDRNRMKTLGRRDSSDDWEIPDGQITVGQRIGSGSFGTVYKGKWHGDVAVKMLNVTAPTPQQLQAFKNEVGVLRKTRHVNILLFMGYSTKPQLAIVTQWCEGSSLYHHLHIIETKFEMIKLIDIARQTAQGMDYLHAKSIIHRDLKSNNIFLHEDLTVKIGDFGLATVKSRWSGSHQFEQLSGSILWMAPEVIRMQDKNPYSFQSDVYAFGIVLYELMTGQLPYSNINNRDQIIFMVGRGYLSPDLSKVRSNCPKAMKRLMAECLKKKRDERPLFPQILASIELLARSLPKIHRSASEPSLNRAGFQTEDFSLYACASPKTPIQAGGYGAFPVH
Sequence of C-Raf Raf-1 (truncated), active (P04049 306-648 Y340D/Y341D): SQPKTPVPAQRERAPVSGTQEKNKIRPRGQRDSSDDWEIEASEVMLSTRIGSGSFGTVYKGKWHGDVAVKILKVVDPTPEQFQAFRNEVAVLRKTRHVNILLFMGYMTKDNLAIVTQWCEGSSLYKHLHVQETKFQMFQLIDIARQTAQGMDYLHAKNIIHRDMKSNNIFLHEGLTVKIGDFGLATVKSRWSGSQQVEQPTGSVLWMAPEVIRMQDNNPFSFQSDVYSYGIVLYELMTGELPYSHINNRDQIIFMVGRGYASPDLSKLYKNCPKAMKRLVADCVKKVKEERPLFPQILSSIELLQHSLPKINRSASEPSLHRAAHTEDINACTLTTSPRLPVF

For the compound `COn1c(=O)c(-c2c(Cl)cccc2Cl)cc2cnc(Nc3cc(CO)ccc3C)nc21` [Compound 45, 6-(2,6-Dichlorophenyl)-2-((2-methyl-5-hydroxymethylphenyl)-amino)-8-methoxy-pyrido[2,3-d]pyrimidin-7-one], the results for the IC50 (at B-Raf delta1-415; in test [1]; in the test with HT-29 tumor cells) were under 0.5 µM, under 0.1 µM and under 10 µM, respectively.
The matching figures for `CN1CCN(c2ccc(Nc3ncc4cc(-c5c(F)cccc5Cl)c(=O)n(O)c4n3)cc2)CC1` [Compound 241]: under 0.5 µM, over 1 µM and under 1 µM.
The corresponding values for `COn1c(=O)c(-c2c(Cl)cccc2Cl)cc2cnc(Nc3ccc(OCCN(C)C)cc3)nc21` [Compound 24, 6-(2,6-Dichlorophenyl)-8-methoxy-2-(4-(2-dimethylaminoethoxy)-phenylamino)-pyrido[2,3-d]pyrimidin-7-one] are under 0.1 µM, under 0.1 µM and under 1 µM.
The corresponding values for `COc1cccc(Nc2ncc3cc(-c4c(Cl)cccc4Cl)c(=O)n(OCCCCN)c3n2)c1` [Compound 41, 8-(4-Aminobutoxy)-6-(2,6-dichlorophenyl)-2-(3-methoxyphenylamino)-pyrido[2,3-d]pyrimidin-7-one] are under 0.5 µM, under 0.1 µM and under 1 µM.
For `COn1c(=O)c(-c2c(Cl)cccc2Cl)cc2cnc(Nc3cccc(SC)c3)nc21` [Compound 2, 6-(2,6-Dichlorophenyl)-8-methoxy-2-(3-methylthiophenylamino)-pyrido[2,3-d]pyrimidin-7-one], the IC50 is under 0.1 µM on B-Raf delta1-415, under 0.5 µM in test [1] and under 1 µM with HT-29 tumor cells.
The matching figures for `COc1cccc(Nc2ncc3cc(-c4c(Cl)cccc4Cl)c(=O)n(OCCCN)c3n2)c1` [Compound 71, 8-(3-Aminopropyl)oxy-6-(2,6-dichlorophenyl)-2-(3-methoxyphenyl)amino-pyrido[2,3-d]pyrimidin-7-one]: under 0.1 µM, under 0.1 µM and under 1 µM.
Consider `COn1c(=O)c(-c2c(Cl)cccc2Cl)cc2cnc(Nc3cccc(CN4CCCC4)c3)nc21` [Compound 21, 6-(2,6-Dichlorophenyl)-8-methoxy-2-(3-(pyrrolidin-1-yl)methylphenylamino)-pyrido[2,3-d]pyrimidin-7-one], for which the IC50 was under 0.5 µM at B-Raf delta1-415, under 0.1 µM in test [1] and under 1 µM in the test with HT-29 tumor cells.
The matching figures for `COn1c(=O)c(-c2ccccc2Cl)cc2cnc(Nc3ccccc3)nc21` [Compound 22, 6-(2-Chlorophenyl)-8-methoxy-2-phenylamino-pyrido[2,3-d]pyrimidin-7-one]: under 0.5 µM, under 0.1 µM and under 10 µM.
The corresponding values for `COCCNc1ncc2cc(-c3c(Cl)cccc3Cl)c(=O)n(OC)c2n1` [Compound 48, 6-(2,6-Dichlorophenyl)-8-methoxy-2-methoxyethylamino-pyrido[2,3-d]pyrimidin-7-one] are under 0.5 µM, under 0.1 µM and over 10 µM.
The corresponding values for `COCCNc1ncc2cc(-c3cc(NC(=O)c4ccccc4)ccc3Cl)c(=O)n(OC)c2n1` [Compound 33] are under 0.5 µM, under 0.1 µM and under 10 µM.
As to `COc1cccc(Nc2ncc3cc(-c4c(Cl)cccc4Cl)c(=O)n(OCCN(C)C)c3n2)c1` [Compound 77, 6-(2,6-Dichlorophenyl)-8-(2-dimethylaminoethyl)oxy-2-(3-methoxyphenyl)amino-pyrido[2,3-d]pyrimidin-7-one], the IC50 on B-Raf delta1-415 was under 0.1 µM; in test [1] it was under 0.5 µM; in the test with HT-29 tumor cells, under 1 µM.
The matching figures for `NCCCCOn1c(=O)c(-c2c(Cl)cccc2Cl)cc2cnc(Nc3ccccc3)nc21` [Compound 34, 8-(4-Aminobutoxy)-6-(2,6-dichlorophenyl)-2-phenylamino-pyrido[2,3-d]pyrimidin-7-one]: under 1 µM, under 0.1 µM and under 1 µM.
The corresponding values for `COn1c(=O)c(-c2c(Cl)cccc2Cl)cc2cnc(Nc3ccc(CCO)cc3)nc21` [Compound 17, 6-(2,6-Dichlorophenyl)-8-methoxy-2-(4-(2-hydroxyethyl)-phenylamino)-pyrido[2,3-d]pyrimidin-7-one] are under 0.1 µM, under 0.1 µM and under 1 µM.
The matching figures for `COn1c(=O)c(-c2c(Cl)cccc2Cl)cc2cnc(Nc3ccc(S(C)(=O)=O)cc3)nc21` [Compound 11, 6-(2,6-Dichlorophenyl)-8-methoxy-2-(4-methylsulfonylphenylamino)-pyrido[2,3-d]pyrimidin-7-one]: under 0.1 µM, under 0.1 µM and under 1 µM.
In the case of `COn1c(=O)c(-c2ccc(Cl)c(Cl)c2)cc2cnc(Nc3ccc(N4CCN(C)CC4)cc3)nc21` [Compound 18, 6-(3,4-Dichlorophenyl)-8-methoxy-2-(4-(4-methylpiperazino)-phenylamino)-pyrido[2,3-d]pyrimidin-7-one], the IC50 on B-Raf delta1-415 is under 1 µM; in test [1], under 1 µM; in the test with HT-29 tumor cells it was under 10 µM.

A word on the IC50: it is the concentration at which inhibition is half-maximal.

The record behind these values is patent US8518958B2, “Pyrido [2,3-D] pyrimidines and their use as kinase inhibitors” (Forma Therapeutics, Inc., priority 2006, dated 2013).
